Assay results: PMC9736855, “Discovery of 3-Amino-1H-pyrazole-Based Kinase Inhibitors to Illuminate the Understudied PCTAIRE Family” (International Journal of Molecular Sciences, 2022)

What was measured:
CDK2 = target: T1, CDK2 (Homo sapiens, UniProt P24941); assay: DSF; format: binding; conditions: 10 μM compound
T1 construct: purchased in-house DSF panel (SGC Frankfurt)
From the text: (§1) To investigate the selectivity profile of the different series, a differential scanning fluorimetry (DSF) assay was used. This assay offers a rapid and sensitive screening method that determines the denaturation temperature of a protein in absence and presence of a compound. This assay format measures the fluorescence of a dye, which depends on the folding state of the protein. The difference between the melting temperature (ΔTm) in the absence and presence of the compound represents the binding strength to the protein.
(§2) Measurements were performed in duplicates.

CDK16 = target: T2, CDK16 (Homo sapiens, UniProt Q00536); assay: DSF; format: binding; conditions: 10 μM compound
T2 construct: purchased in-house DSF panel (SGC Frankfurt)
T2 sequence (Q00536 163-478): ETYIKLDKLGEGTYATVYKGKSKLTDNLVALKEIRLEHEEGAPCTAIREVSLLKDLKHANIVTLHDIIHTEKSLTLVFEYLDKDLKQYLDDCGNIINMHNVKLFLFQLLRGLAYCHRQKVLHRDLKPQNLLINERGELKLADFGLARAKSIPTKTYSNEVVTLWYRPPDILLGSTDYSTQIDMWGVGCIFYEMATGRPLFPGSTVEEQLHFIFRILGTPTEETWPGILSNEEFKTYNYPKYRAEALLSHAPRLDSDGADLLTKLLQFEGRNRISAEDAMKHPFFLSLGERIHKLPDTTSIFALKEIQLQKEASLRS
From the text: as §1, §2

GSK3B = GSK3B (Homo sapiens, UniProt P49841); assay: DSF; format: binding; set-up: purchased in-house DSF panel (SGC Frankfurt); conditions: 10 μM compound
Chain of GSK3B (P49841 35-386): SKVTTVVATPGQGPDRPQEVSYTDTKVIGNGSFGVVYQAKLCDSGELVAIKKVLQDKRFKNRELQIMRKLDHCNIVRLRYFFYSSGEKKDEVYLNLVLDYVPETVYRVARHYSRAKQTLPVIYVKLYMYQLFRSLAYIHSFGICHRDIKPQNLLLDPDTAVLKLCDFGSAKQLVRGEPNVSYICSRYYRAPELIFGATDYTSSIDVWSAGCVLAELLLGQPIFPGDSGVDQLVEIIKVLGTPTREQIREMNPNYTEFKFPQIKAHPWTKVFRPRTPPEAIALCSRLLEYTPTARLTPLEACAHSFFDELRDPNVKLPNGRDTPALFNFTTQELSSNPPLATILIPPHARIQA
From the text: as §1, §2

CDK16/Cyclin Y = target: T3, CDK16/Cyclin Y (Homo sapiens, UniProt Q00536); assay: NanoBRET; format: cell-based; conditions: Figure 7, 11-point dose-response in duplicates; read-out: NanoBRET EC50 ± SEM against CDK16
T3 construct: Full-length kinases were obtained as plasmids cloned in frame with a terminal NanoLuc-fusion; CS1810C178 (CCNY); host or cells: HEK293T
T3 sequence (Q00536 whole entry, the tested form may be a part): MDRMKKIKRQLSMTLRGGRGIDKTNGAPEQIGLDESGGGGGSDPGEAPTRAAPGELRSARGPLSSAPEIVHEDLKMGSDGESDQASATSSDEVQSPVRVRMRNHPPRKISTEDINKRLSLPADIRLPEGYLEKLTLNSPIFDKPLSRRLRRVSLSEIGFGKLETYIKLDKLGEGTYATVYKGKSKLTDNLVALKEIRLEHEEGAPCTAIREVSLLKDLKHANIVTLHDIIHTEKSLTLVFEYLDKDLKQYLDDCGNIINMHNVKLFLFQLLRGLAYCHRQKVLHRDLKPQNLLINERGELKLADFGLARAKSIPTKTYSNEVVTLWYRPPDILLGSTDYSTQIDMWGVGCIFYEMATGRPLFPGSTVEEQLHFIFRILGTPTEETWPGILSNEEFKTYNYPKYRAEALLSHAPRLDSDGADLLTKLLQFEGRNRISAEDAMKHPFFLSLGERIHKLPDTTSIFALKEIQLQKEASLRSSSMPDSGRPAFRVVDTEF
T3 sequence (Q8ND76 2-341 partner limits assumed): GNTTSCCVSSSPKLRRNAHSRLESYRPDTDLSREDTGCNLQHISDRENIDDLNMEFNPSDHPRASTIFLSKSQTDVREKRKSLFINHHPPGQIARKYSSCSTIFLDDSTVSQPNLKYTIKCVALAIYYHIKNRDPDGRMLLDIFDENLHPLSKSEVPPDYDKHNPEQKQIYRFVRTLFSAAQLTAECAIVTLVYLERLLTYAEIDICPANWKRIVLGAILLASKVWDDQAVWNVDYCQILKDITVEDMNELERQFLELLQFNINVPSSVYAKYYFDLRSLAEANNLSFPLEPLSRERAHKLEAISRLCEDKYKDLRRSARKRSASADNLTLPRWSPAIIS
Experimental: Next, to specifically quantify the outcome of the cellular activity of the compounds, a NanoBRET cellular target engagement assay was performed. The determination of the cellular potency on CDK16 correlated well with the corresponding DSF assay data (Figure S2). […] As mentioned before, the exchange from a methyl ester to an iso-propyl or tert-butyl ester led to a higher stabilization of the kinase in the DSF assay, which correlated with an increase in cellular potency as determined in the NanoBRET assay. […] The number of potential off-targets was low with 1 and 2 kinases with ΔTm >5 °C (Figure 4), highlighting these inhibitors for more comprehensive selectivity studied within the CDK and particular the TAIRE subfamily.
The assay was performed as described previously. In brief: Full-length kinases were obtained as plasmids cloned in frame with a terminal NanoLuc-fusion (Promega, Madison, WI, USA), as specified in table (Table S6). Plasmids were transfected into HEK293T cells using FuGENE HD (Promega, E2312) and proteins were allowed to express for 20h. Serially diluted inhibitor and NanoBRET Kinase Tracer (Promega) at a concentration determined previously as the KD,app (Table S5) were pipetted into white 384-well plates (Greiner 781207) using an Echo acoustic dispenser (Labcyte, San Jose, CA, USA). The corresponding protein-transfected cells were added and reseeded at a density of 2.5 × 10^5 cells/mL after trypsinization and resuspending in Opti-MEM without phenol red (Life Technologies, Carlsbad, CA, USA). The system was allowed to equilibrate for 2 h at 37 °C/5% CO2 prior to BRET measurements. To measure BRET, NanoBRET NanoGlo Substrate + Extracellular NanoLuc Inhibitor (Promega, N2540) was added as per the manufacturer’s protocol, and filtered luminescence was measured on a PHERAstar plate reader (BMG Labtech, Ortenberg, Germany) equipped with a luminescence filter pair (450 nm BP filter (donor) and 610 nm LP filter (acceptor)). Competitive displacement data were then graphed using GraphPad Prism 9 software using a normalized 3-parameter curve fit with the following equation: Y = 100/(1 + 10^(X–LogEC50)).

ΔTm at 10 µM (CDK2) [°C] | ΔTm at 10 µM (CDK16) [°C] | ΔTm at 10 µM (GSK3B) [°C] | EC50 (CDK16/Cyclin Y) [µM] | Compound
6.3 ± 0.2 | 7.3 ± 0.1 | 5.9 ± 0.2 | 0.067 ± 0.0013 | CC(C)(C)OC(=O)NCCOCCNc1nccc(Nc2cc(C3CC3)n[nH]2)n1 [11d, tert-butyl (2-(2-((4-((3-cyclopropyl-1H-pyrazol-5-yl)amino)pyrimidin-2-yl)amino)ethoxy)-ethyl)carbamate]
11.3 | 8.8 ± 0.1 | 7.9 ± 0.1 | 0.1 ± 0.007 | CC(=O)NCCCCCCNc1nccc(Nc2cc(C3CC3)n[nH]2)n1 [compound 15, N-(6-((4-((3-cyclopropyl-1H-pyrazol-5-yl)amino)pyrimidin-2-yl)amino)hexyl)acetamide]
8.4 ± 0.1 | 7.6 ± 0.2 | 6.3 ± 0.1 | 0.11 ± 0.0097 | CC(C)(C)OC(=O)NCc1ccc(CNc2nccc(Nc3cc(C4CC4)n[nH]3)n2)cc1 [11f, tert-butyl 4-(((4-((3-cyclopropyl-1H-pyrazol-5-yl)amino)pyrimidin-2-yl)amino)methyl)-benzylcarbamate]
1.2 ± 0.2 | 0.9 | 2.9 | 4.16 ± 0.274 | CNC(=O)c1cc(Nc2ccnc(Nc3ccc(CCNC(=O)OC(C)(C)C)cc3)n2)[nH]n1 [41a, tert-butyl 4-((4-((3-(methylcarbamoyl)-1H-pyrazol-5-yl)amino)pyrimidin-2-yl)amino)-phenethylcarbamate]
12.3 | 8.7 | 8.2 ± 0.1 | 0.035 | CC(C)(C)OC(=O)NCCc1ccc(Nc2nccc(Nc3cc(C4CC4)n[nH]3)n2)cc1 [11a, tert-butyl 4-((4-((3-cyclopropyl-1H-pyrazol-5-yl)amino)pyrimidin-2-yl)amino)phenethyl-carbamate]
5.8 ± 0.1 | 4.4 ± 0.1 | 5.7 | 1.13 ± 0.0205 | CC(C)(C)OC(=O)NCCc1ccc(Nc2nccc(Nc3cc(C(C)(C)C)n[nH]3)n2)cc1 [40a, tert-butyl 4-((4-((3-(tert-butyl)-1H-pyrazol-5-yl)amino)pyrimidin-2-yl)amino)phenethyl-carbamate]
4.7 ± 0.1 | 5.8 ± 0.2 | 4.6 ± 0.1 | 0.253 ± 0.0192 | Cc1cc(Nc2ccnc(NCCCCCNC(=O)OC(C)(C)C)n2)[nH]n1 [38b, tert-butyl (5-((4-((3-methyl-1H-pyrazol-5-yl)amino)pyrimidin-2-yl)amino)pentyl)-carbamate]
9.8 ± 1.3 | 7.9 ± 0.4 | 7 ± 0.1 | 0.07 ± 0.0049 | CC(C)c1cc(Nc2ccnc(Nc3ccc(CCNC(=O)OC(C)(C)C)cc3)n2)[nH]n1 [39a, tert-butyl 4-((4-((3-isopropyl-1H-pyrazol-5-yl)amino)pyrimidin-2-yl)amino)phenethyl-carbamate]
9.5 ± 0.1 | 8.6 ± 0.1 | 6.2 ± 0.1 | 0.047 ± 0.0041 | CC(C)c1cc(Nc2ccnc(NCCCCCNC(=O)OC(C)(C)C)n2)[nH]n1 [39b, tert-butyl (5-((4-((3-isopropyl-1H-pyrazol-5-yl)amino)pyrimidin-2-yl)amino)pentyl)-carbamate]
4.7 | 3.7 ± 0.1 | 5.1 | 1.1 ± 0.0445 | Cc1cnc(Nc2cccc(CCNC(=O)OC(C)(C)C)c2)nc1Nc1cc(C2CC2)n[nH]1 [12b, tert-butyl 3-((4-((3-cyclopropyl-1H-pyrazol-5-yl)amino)-5-methylpyrimidin-2-yl)amino)-phenethylcarbamate]
4.3 ± 0.1 | 5.1 ± 0.1 | 4.9 ± 0.1 | 0.504 ± 0.0093 | CC(C)(C)OC(=O)NCCCCCNc1nccc(Nc2cc(C(C)(C)C)n[nH]2)n1 [40b, tert-butyl (5-((4-((3-(tert-butyl)-1H-pyrazol-5-yl)amino)pyrimidin-2-yl)amino)pentyl)-carbamate]
1.2 ± 0.2 | 1.5 ± 0.1 | 1.3 ± 0.1 | 2.47 ± 0.248 | CNC(=O)c1cc(Nc2ccnc(NCCCCCNC(=O)OC(C)(C)C)n2)[nH]n1 [41b, tert-butyl (5-((4-((3-(methylcarbamoyl)-1H-pyrazol-5-yl)amino)pyrimidin-2-yl)amino)-pentyl)carbamate]
5.1 ± 0.3 | 3.2 | 5.9 ± 0.3 | 0.914 ± 0.011 | CC(C)(C)OC(=O)NCCCCCNc1ncc(Cl)c(Nc2cc(C3CC3)n[nH]2)n1 [13c, tert-butyl (5-((5-chloro-4-((3-cyclopropyl-1H-pyrazol-5-yl)amino)pyrimidin-2-yl)amino)pentyl)carbamate]
5.3 | 5.8 ± 0.1 | 6.6 | 0.619 ± 0.032 | Cc1cnc(NCCOCCNC(=O)OC(C)(C)C)nc1Nc1cc(C2CC2)n[nH]1 [12d, tert-butyl (2-(2-((4-((3-cyclopropyl-1H-pyrazol-5-yl)amino)-5-methylpyrimidin-2-yl)amino)ethoxy)ethyl)carbamate]
5.9 | 3.2 | 4.6 | 0.354 ± 0.0605 | CC(C)(C)OC(=O)NCCc1ccc(Nc2ncc(Cl)c(Nc3cc(C4CC4)n[nH]3)n2)cc1 [13a, tert-butyl 4-((5-chloro-4-((3-cyclopropyl-1H-pyrazol-5-yl)amino)pyrimidin-2-yl)amino)phenethylcarbamate]

Compound | ΔTm at 10 µM (CDK2) [°C] | ΔTm at 10 µM (CDK16) [°C] | ΔTm at 10 µM (GSK3B) [°C] | EC50 (CDK16/Cyclin Y) [µM]
COC(=O)c1cc(Nc2nc(NCCOCCNC(=O)OC(C)(C)C)ncc2Cl)[nH]n1 [22d, methyl 5-((2-((2-(2-((tert-butoxycarbonyl)amino)ethoxy)ethyl)amino)-5-chloropyrimidin-4-yl)amino)-1H-pyrazole-3-carboxylate] | 0.2 | 0.2 ± 0.2 | 2.1 ± 0.1 | 25 ± 4.22
COC(=O)c1cc(Nc2nc(Nc3cccc(CCNC(=O)OC(C)(C)C)c3)ncc2Cl)[nH]n1 [22b, methyl 5-((2-((3-(2-((tert-butoxycarbonyl)amino)ethyl)phenyl)amino)-5-chloropyrimidin-4-yl)amino)-1H-pyrazole-3-carboxylate] | 2.1 ± 0.1 | 0.8 ± 0.1 | 3.9 ± 0.6 | 3.19 ± 0.589
COC(=O)c1cc(Nc2nc(NCCCCCNC(=O)OC(C)(C)C)nc3ccccc23)[nH]n1 [23c, methyl 5-((2-((5-((tert-butoxycarbonyl)amino)pentyl)amino)quinazolin-4-yl)amino)-1H-pyrazole-3-carboxylate] | 1.3 ± 0.5 | 3.4 ± 0.1 | 4.2 | 4.6 ± 0.385
COC(=O)c1cc(Nc2ccnc(Nc3ccc(CCNC(=O)OC(C)(C)C)cc3)n2)[nH]n1 [21a, methyl 5-((2-((4-(2-((tert-butoxycarbonyl)amino)ethyl)phenyl)amino)pyrimidin-4-yl)amino)-1H-pyrazole-3-carboxylate] | 3.1 ± 0.2 | 4.3 ± 0.4 | 7.8 ± 0.2 | 0.652 ± 0.0156
COC(=O)c1cc(Nc2nc(Nc3ccc(CCNC(=O)OC(C)(C)C)cc3)nc3ccccc23)[nH]n1 [23a, methyl 5-((2-((4-(2-((tert-butoxycarbonyl)amino)ethyl)phenyl)amino)quinazolin-4-yl)amino)-1H-pyrazole-3-carboxylate] | -0.1 ± 0.1 | 3.4 ± 0.6 | 1 ± 0.1 | 9.36 ± 1.02
COC(=O)c1cc(Nc2nc(NCCCCCNC(=O)OC(C)(C)C)ncc2Cl)[nH]n1 [22c, methyl 5-((2-((5-((tert-butoxycarbonyl)amino)pentyl)amino)-5-chloropyrimidin-4-yl)amino)-1H-pyrazole-3-carboxylate] | 1.5 ± 0.1 | 1 ± 0.1 | 4.8 ± 0.2 | 8.32 ± 0.227
COC(=O)c1cc(Nc2nc(NCCCCCCNC(=O)OC(C)(C)C)ncc2Cl)[nH]n1 [22e, methyl 5-((2-((6-((tert-butoxycarbonyl)amino)hexyl)amino)-5-chloropyrimidin-4-yl)amino)-1H-pyrazole-3-carboxylate] | 0.7 | 0.2 ± 0.3 | 2.9 ± 0.1 | 12.09 ± 0.065
